Patent publication US20210213037A1, “METHODS FOR TREATING FIBROSIS” (CHILDREN'S HOSPITAL MEDICAL CENTER, priority 2018, published 2021)

Assays:
[1] = system: idiopathic pulmonary fibrosis; conditions: cited from earlier work
TGFα mice = assay: TGFα-induced pulmonary fibrosis mouse model, therapeutic intervention in established fibrosis; type: in vivo; conditions: vs vehicle
Text: Mouse model of TGFα-induced pulmonary fibrosis and Barasertib treatment therapy The generation of TGFα-overexpressing mice has been described previously (HARDIE et al. (2004) “Conditional expression of transforming growth factor-alpha in adult mouse lung causes pulmonary fibrosis” Am J Physiol Lung Cell Mol Physiol, Vol. 286, pp. L741-749, which is herein incorporated by reference in its entirety). Clara cell-specific protein-rtTA^+/− (CCSP-rtTA) mice were crossed with heterozygous (TetO)7-cmv TGFα mice to produce bitransgenic CCSP/TGFα mice. To induce TGFα expression, the transgenic mice were fed with doxycycline (Dox)-containing chow (62.5 mg/kg) (MADALA et al. (2014) “Inhibition of the alphavbeta6 integrin leads to limited alteration of TGF-alpha-induced pulmonary fibrosis” Am J Physiol Lung Cell Mol Physiol, Vol. 306, pp. L726-735, which is herein incorporated by reference in its entirety). They were housed under specific pathogen-free conditions and handled in accordance with protocols approved by the Institutional Animal Care and Use Committee of the Cincinnati Children's Hospital Research Foundation. Barasertib (Selleckchem, Houston, Tex.) was prepared in fresh vehicle (5% DMSO and 50% PEG in PBS) every day before treatment. […]

Compound	effect on mortality [1]	fibroproliferation (Ki67 immunostaining of lung sections) (TGFα mice; Dox two weeks, then barasertib 25 or 50 mg/kg QD or nintedanib 60 mg/kg QD for 5 days, data not shown)	expression of ECM genes (Co11α, FN1; RT-PCR) (TGFα mice; barasertib 25 or 50 mg/kg QD or nintedanib 60 mg/kg QD i.p., FIG. 14)	effect on respiratory symptoms [1]
COC(=O)c1ccc2c(c1)NC(=O)/C2=C(\Nc1ccc(N(C)C(=O)CN2CCN(C)CC2)cc1)c1ccccc1 [nintedanib]	neither pirfenidone nor nintedanib had any effect	reduction in fibroproliferation	attenuated	–
Cc1ccc(=O)n(-c2ccccc2)c1 [pirfenidone]	neither pirfenidone nor nintedanib had any effect	–	–	no effect
